These results are taken from patent US20250263370A1 (Tay Therapeutics Limited, priority 2022, published 2025).

Where two headings read alike, the source gives them in different places. Bounds are passed on as bounds.

The target in one test is BRD4 BD1 (Homo sapiens (Human), UniProt O60885). The test is described as follows: NanoBRET bromodomain assay, NanoLuc-BRD4-BD1 fusion in HEK293 cells. It counts as cell-based. To be noted: top concentration 10 μM. In general terms: BRET reads energy transfer from a luciferase to a nearby fluorophore.
Another test deals with BRD4 BD2 (Homo sapiens (Human), UniProt O60885). Nature of the test: NanoBRET bromodomain assay, NanoLuc-BRD4-BD2 fusion in HEK293 cells.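 As to all read-outs here: tracer displacement BRET read in transfected cells after 2 h compound exposure at 37 °C, signal in milliBRET units corrected against no-tracer background wells.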 Particulars: for IC50: NanoBRET, HEK293 cells, top concentration 10 μM; for Fold selectivity: IC50 for BRD4 BD1 divided by IC50 for BRD4 BD2, qualitative if an IC50 is at the upper limit.

Description for BRD4 BD1: HEK293 cells were transfected using NanoLuc-BRD4-BD1 or NanoLuc-BRD4-BD2 fusion vectors and incubated at 37° C. in an atmosphere of 5% CO2 for 20-24 hours. The transfected cells were then dispensed into 96-well plates using 90 μl cell suspension per well containing 2×10^5 cells/mL in Opti-MEM and 1× final concentration of tracer. 90 μL per well of cell suspension without tracer was also dispensed into at least 3 wells as “No tracer control samples” for background correction. Serially diluted test compounds were prepared at 1000× concentration in DMSO and further diluted to 10× concentration in Opti-MEM. […] Plates were then incubated at 37° C. +5% 002 incubator for 2 hours. […] Donor emission (450 nm) and acceptor emission (610 nm) were measured using PHERAstar (BMG LabTech). For data analysis, the raw BRET ratio was generated and converted to milliBRET units with background correction using the formula: [(Acceptorsample/Donorsample−(Acceptorno tracer control/Donorno tracer control)]×1000. The mBU data was plotted as a function of compound concentration and IC50s for BRET assay were determined by nonlinear regression analysis of concentration response curves using the Collaborative Drug Discovery Vault software. The fold-selectivity was calculated by dividing the IC50 for BRD4 BD1 by the IC50 for BRD4 BD2.

Take `CCNC(=O)c1cc(OC(C)c2c(C)cccc2C)c(C(=O)NC)[nH]1` (single isomer, unassigned) [Example 65, 3-(1-(2,6-dimethylphenyl)ethoxy)-N^5-ethyl-N^2-methyl-1H-pyrrole-2,5-dicarboxamide]: the IC50 on BRD4 BD1 is at least 10 µM; against BRD4 BD2 (BRD4 BD2 (IC50)), above 10 µM. The Fold selectivity entry at BRD4 BD2 was “— (Fold ≥0 and ≤2)”.

Regarding `CCNC(=O)c1cc(OC(C)c2c(Cl)cccc2Cl)c(C(=O)NC)[nH]1` (single isomer, unassigned) [Example 66, 3-(1-(2,6-dichlorophenyl)ethoxy)-N^5-ethyl-N^2-methyl-1H-pyrrole-2,5-dicarboxamide], the 50% inhibitory concentration (IC50) on BRD4 BD1 was at least 10 µM; against BRD4 BD2 (BRD4 BD2 (IC50)), above 10 µM. Further, the Fold selectivity entry on BRD4 BD2 is “— (Fold ≥0 and ≤2)”.

On to `CCNC(=O)c1cc(OC(C)c2c(Cl)cccc2Cl)c(C(=O)NC)[nH]1` (single isomer, unassigned) [Example 67, 3-(1-(2,6-dichlorophenyl)ethoxy)-N^5-ethyl-N^2-methyl-1H-pyrrole-2,5-dicarboxamide], for which the values for the half-inhibitory concentration (IC50) on BRD4 BD1 and at BRD4 BD2 (read-out: BRD4 BD2 (IC50)) were at least 10 µM and above 10 µM, respectively. For the same compound, the Fold selectivity entry at BRD4 BD2 is “— (Fold ≥0 and ≤2)”.

Regarding `CCNC(=O)c1cc(OC(C)c2ccc(OC)cc2)c(C(=O)NC)[nH]1` (single isomer, unassigned) [Example 75, N^5-ethyl-3-(1-(4-methoxyphenyl)ethoxy)-N^2-methyl-1H-pyrrole-2,5-dicarboxamide], the values for the IC50 at BRD4 BD1 and at BRD4 BD2 (BRD4 BD2 (IC50)) were at least 10 µM and 0.05 to 0.2 µM, respectively. Moreover, on BRD4 BD2, the Fold selectivity entry is “XX (Fold >50 and ≤200)”.

For `CCNC(=O)c1cc(OC(C)c2ccc(OC)cc2)c(C(=O)NC)[nH]1` (single isomer, unassigned) [Example 76, N^5-ethyl-3-(1-(4-methoxyphenyl)ethoxy)-N^2-methyl-1H-pyrrole-2,5-dicarboxamide], the IC50 against BRD4 BD1 is at least 10 µM; against BRD4 BD2 (BRD4 BD2 (IC50)), above 10 µM. Besides, on BRD4 BD2, the Fold selectivity result is “— (Fold ≥0 and ≤2)”.

Regarding `CCNC(=O)c1cc(OC(C)c2ccnnc2)c(C(=O)NC)[nH]1` (single isomer, unassigned) [Example 78, N^5-ethyl-N^2-methyl-3-(1-(pyridazin-4-yl)ethoxy)-1H-pyrrole-2,5-dicarboxamide], the half-maximal inhibitory concentration (IC50) against BRD4 BD1 is at least 10 µM; at BRD4 BD2 (BRD4 BD2 (IC50)) it was above 10 µM. Moreover, the Fold selectivity entry on BRD4 BD2 was “— (Fold ≥0 and ≤2)”.

For `CCNC(=O)c1cc(OC(C)c2ccnnc2)c(C(=O)NC)[nH]1` (single isomer, unassigned) [Example 79, N^5-ethyl-N^2-methyl-3-(1-(pyridazin-4-yl)ethoxy)-1H-pyrrole-2,5-dicarboxamide], the results for the half-inhibitory concentration (IC50) against BRD4 BD1 and at BRD4 BD2 (BRD4 BD2 (IC50)) were at least 10 µM and 1 to 10 µM, respectively. In addition, the Fold selectivity entry at BRD4 BD2 was “— (Fold ≥0 and ≤2)”.

For `CNC(=O)c1[nH]c(C(=O)N[C@H]2CC[C@H](O)CC2)cc1O[C@@H](C)c1ccnnc1` (single isomer, unassigned) [Example 91, N^5-(4-hydroxycyclohexyl)-N^2-methyl-3-(1-(pyridazin-4-yl)ethoxy)-1H-pyrrole-2,5-dicarboxamide], the IC50 is at least 10 µM at BRD4 BD1 and above 10 µM at BRD4 BD2 (BRD4 BD2 (IC50)). The Fold selectivity result on BRD4 BD2 was “— (Fold ≥0 and ≤2)”.

On to `CNC(=O)c1[nH]c(C(=O)N[C@H]2CC[C@H](O)CC2)cc1O[C@@H](C)c1ccnnc1` (single isomer, unassigned) [Example 93, N^5-(4-hydroxycyclohexyl)-N^2-methyl-3-(1-(pyridazin-4-yl)ethoxy)-1H-pyrrole-2,5-dicarboxamide], for which the IC50 is at least 10 µM at BRD4 BD1 and above 10 µM at BRD4 BD2 (read-out: BRD4 BD2 (IC50)). Besides, the Fold selectivity result at BRD4 BD2 is “— (Fold ≥0 and ≤2)”.

For the compound `CNC(=O)c1[nH]c(C(=O)N[C@H]2CC[C@H](O)CC2)cc1O[C@@H](C)c1ccnnc1` (single isomer, unassigned) [Example 94, N^5-(4-hydroxycyclohexyl)-N^2-methyl-3-(1-(pyridazin-4-yl)ethoxy)-1H-pyrrole-2,5-dicarboxamide], the IC50 was at least 10 µM against BRD4 BD1 and above 10 µM on BRD4 BD2 (read-out: BRD4 BD2 (IC50)). Also, the Fold selectivity result on BRD4 BD2 was “— (Fold ≥0 and ≤2)”.

For the compound `CNC(=O)c1[nH]c(-c2ncc(C)[nH]2)cc1O[C@@H](C)c1ccccc1` [23 (2)*], the half-inhibitory concentration (IC50) on BRD4 BD1 was at least 10 µM; at BRD4 BD2 (BRD4 BD2 (IC50)), above 10 µM. The “BRD4 BD2 % Activity Remaining @ 10 uM” value on BRD4 BD2 (10 uM, (2) = second batch) worked out at 61%. Moreover, the Fold selectivity entry at BRD4 BD2 was “— (Fold ≥0 and ≤2)”.

In the case of `CCNC(=O)c1cc(OC(C)c2cccc(C#N)c2)c(C(=O)NC)[nH]1` (stereo not shown) [Example 4, 3-(1-(3-cyanophenyl)ethoxy)-N^5-ethyl-N^2-methyl-1H-pyrrole-2,5-dicarboxamide], the IC50 at BRD4 BD1 was at least 10 µM; on BRD4 BD2 (BRD4 BD2 (IC50)), above 10 µM. In addition, at BRD4 BD2, the Fold selectivity result was “— (Fold ≥0 and ≤2)”.

For `CNC(=O)c1[nH]c(-c2ncc(C)[nH]2)cc1O[C@H](C)c1ccccc1` [Example 24, (R)-N-methyl-5-(5-methyl-1H-imidazol-2-yl)-3-(1-phenylethoxy)-1H-pyrrole-2-carboxamide], the values for the concentration for half-maximal inhibition (IC50) at BRD4 BD1 and against BRD4 BD2 (BRD4 BD2 (IC50)) were at least 10 µM and 1 to 10 µM, respectively. Further, the remaining activity at 10 µM at BRD4 BD2 (HEK293, read-out: BRD4 BD2 % Activity Remaining @ 10 uM, 10 uM, (2) = second batch) stood at 41%.

`CNC(=O)c1[nH]c(C(=O)NCC(F)(F)F)cc1O[C@@H](C)c1ccccc1F` [Example 57, (S)-3-(1-(2-fluorophenyl)ethoxy)-N^2-methyl-N^5-(2,2,2-trifluoroethyl)-1H-pyrrole-2,5-dicarboxamide]: the 50% inhibitory concentration (IC50) against BRD4 BD1 is at least 10 µM; against BRD4 BD2 (BRD4 BD2 (IC50)), 0.2 to 1 µM. The Fold selectivity entry at BRD4 BD2 was “X (Fold >2 and ≤50)”.

Regarding `CNC(=O)c1[nH]c(C(=O)NC(C)C)cc1O[C@@H](C)c1ccccc1F` [Example 58, (S)-3-(1-(2-fluorophenyl)ethoxy)-N^5-isopropyl-N^2-methyl-1H-pyrrole-2,5-dicarboxamide], the IC50 against BRD4 BD1 was at least 10 µM; at BRD4 BD2 (BRD4 BD2 (IC50)) it was 0.05 to 0.2 µM. Also, the Fold selectivity entry on BRD4 BD2 is “XX (Fold >50 and ≤200)”.

As for `CNC(=O)c1[nH]c(C(=O)NCC(F)(F)F)cc1O[C@@H](C)c1ccc(Cl)cc1` [Example 60, (S)-3-(1-(4-chlorophenyl)ethoxy)-N^2-methyl-N^5-(2,2,2-trifluoroethyl)-1H-pyrrole-2,5-dicarboxamide], the figures for the 50% inhibitory concentration (IC50) against BRD4 BD1 and on BRD4 BD2 (BRD4 BD2 (IC50)) were at least 10 µM and 0.05 to 0.2 µM, respectively. Besides, the Fold selectivity result on BRD4 BD2 is “XX (Fold >50 and ≤200)”.

In the case of `CNC(=O)c1[nH]c(-c2cc(C)nn2C)cc1O[C@@H](C)c1ccccc1` [Example 81, (S)-5-(1,3-dimethyl-1H-pyrazol-5-yl)-N-methyl-3-(1-phenylethoxy)-1H-pyrrole-2-carboxamide], the half-inhibitory concentration (IC50) is at least 10 µM on BRD4 BD1 and 0.05 to 0.2 µM against BRD4 BD2 (BRD4 BD2 (IC50)). For the same compound, the Fold selectivity result on BRD4 BD2 is “XX (Fold >50 and ≤200)”.

With `CNC(=O)c1[nH]c(-c2cc(C)nn2C)cc1O[C@H](C)c1ccccc1` [Example 82, (R)-5-(1,3-dimethyl-1H-pyrazol-5-yl)-N-methyl-3-(1-phenylethoxy)-1H-pyrrole-2-carboxamide], the results for the IC50 against BRD4 BD1 and against BRD4 BD2 (BRD4 BD2 (IC50)) were at least 10 µM and above 10 µM, respectively. For the same compound, at BRD4 BD2, the Fold selectivity result is “— (Fold ≥0 and ≤2)”.

For `CNC(=O)c1[nH]c(-c2cnn(C(F)(F)F)c2)cc1O[C@@H](C)c1ccccc1` [Example 83, (S)-N-methyl-3-(1-phenylethoxy)-5-(1-(trifluoromethyl)-1H-pyrazol-4-yl)-1H-pyrrole-2-carboxamide], the half-inhibitory concentration (IC50) was at least 10 µM against BRD4 BD1 and below 0.05 µM against BRD4 BD2 (BRD4 BD2 (IC50)). The Fold selectivity entry at BRD4 BD2 was “XXX (Fold >200)”.

As for `CNC(=O)c1[nH]c(-c2ccccc2)cc1O[C@@H](C)c1ccccc1` [Example 84, (S)-N-methyl-5-phenyl-3-(1-phenylethoxy)-1H-pyrrole-2-carboxamide], the 50% inhibitory concentration (IC50) is at least 10 µM at BRD4 BD1 and 1 to 10 µM at BRD4 BD2 (BRD4 BD2 (IC50)). Moreover, the Fold selectivity entry on BRD4 BD2 was “X (Fold >2 and ≤50)”.

As to `CNC(=O)c1[nH]c(-c2ccccc2F)cc1O[C@@H](C)c1ccccc1` [Example 85, (S)-5-(2-fluorophenyl)-N-methyl-3-(1-phenylethoxy)-1H-pyrrole-2-carboxamide], the IC50 at BRD4 BD1 was at least 10 µM; on BRD4 BD2 (BRD4 BD2 (IC50)), 1 to 10 µM. In addition, at BRD4 BD2, the Fold selectivity entry was “X (Fold >2 and ≤50)”.

`CNC(=O)c1[nH]c(-c2ccc(F)cc2F)cc1O[C@@H](C)c1ccccc1` [Example 86, (S)-5-(2,4-difluorophenyl)-N-methyl-3-(1-phenylethoxy)-1H-pyrrole-2-carboxamide]: the IC50 is at least 10 µM on BRD4 BD1 and 1 to 10 µM on BRD4 BD2 (BRD4 BD2 (IC50)). Further, the Fold selectivity result on BRD4 BD2 is “X (Fold >2 and ≤50)”.

Turning to `CNC(=O)c1[nH]c(-c2nc(C)c(C)[nH]2)cc1O[C@@H](C)c1ccccc1` [Example 87, (S)-5-(4,5-dimethyl-1H-imidazol-2-yl)-N-methyl-3-(1-phenylethoxy)-1H-pyrrole-2-carboxamide], the values for the half-maximal inhibitory concentration (IC50) on BRD4 BD1 and against BRD4 BD2 (BRD4 BD2 (IC50)) were at least 10 µM and 0.05 to 0.2 µM, respectively. The Fold selectivity result at BRD4 BD2 was “XX (Fold >50 and ≤200)”.

`CNC(=O)c1[nH]c(-c2cnn(C)c2)cc1O[C@@H](C)c1ccccc1` [Example 88, (S)-N-methyl-5-(1-methyl-1H-pyrazol-4-yl)-3-(1-phenylethoxy)-1H-pyrrole-2-carboxamide]: the IC50 against BRD4 BD1 is at least 10 µM; on BRD4 BD2 (BRD4 BD2 (IC50)) it was 0.05 to 0.2 µM. Besides, at BRD4 BD2, the Fold selectivity entry is “XX (Fold >50 and ≤200)”.

`CNC(=O)c1[nH]c(-c2ncc[nH]2)cc1O[C@@H](C)c1ccccc1` [Example 89, (S)-5-(1H-imidazol-2-yl)-N-methyl-3-(1-phenylethoxy)-1H-pyrrole-2-carboxamide]: the IC50 against BRD4 BD1 is at least 10 µM; on BRD4 BD2 (BRD4 BD2 (IC50)) it was 0.05 to 0.2 µM. In addition, the Fold selectivity result on BRD4 BD2 was “XX (Fold >50 and ≤200)”.

Consider `CNC(=O)c1[nH]c(-c2cc(C)nc(C)c2)cc1O[C@@H](C)c1ccccc1` [Example 90, (S)-5-(2,6-dimethylpyridin-4-yl)-N-methyl-3-(1-phenylethoxy)-1H-pyrrole-2-carboxamide], for which the concentration for half-maximal inhibition (IC50) against BRD4 BD1 was at least 10 µM; on BRD4 BD2 (BRD4 BD2 (IC50)), 0.2 to 1 µM. In addition, on BRD4 BD2, the Fold selectivity entry is “X (Fold >2 and ≤50)”.

The IC50 is the point on the concentration scale where inhibition reaches its midpoint. One may read the remaining activity as the signal under treatment as a percentage of the control signal.
